Patent US11198713B2, “Agents modulating beta-catenin functions and methods thereof” (FOG PHARMACEUTICALS, INC., priority 2017, dated 2021)
Converted amounts (≈) assume the structure as drawn. Read-outs that look alike come from different tables or passages of the source. Numbered stars: 1 amine (or outer) side, 2 acyl side, 3 side chain; on linkers, the order of the positions; unused ones are H or OH. Bridge positions count the residues as written; N and C are the ends. Square brackets hold non-standard residues; d marks the D form. Primed or numbered codes have the meaning given here. Peptide text beside a SMILES is read from it. * marks the point of attachment. MB(12) = Monomer B (PyrS), pyrrolidine stapling residue with N-allyl carbamate; MA = Monomer A (Az), N-Alloc azetidine stapling residue; S7 = C[C@@](CCCCCC=[*:3])(N[*:1])C(=O)[*:2]; R8 = C=CCCCCCC[C@@](C)(N)C(=O)O; Nle = CCCC[C@H](N)C(=O)O; Hex = hexyl, CCCCCC*; Octyl = CCCCCCCC*

T1: biotinylated beta-catenin (Homo sapiens, UniProt P35222)
T1 sequence (P35222 1-781): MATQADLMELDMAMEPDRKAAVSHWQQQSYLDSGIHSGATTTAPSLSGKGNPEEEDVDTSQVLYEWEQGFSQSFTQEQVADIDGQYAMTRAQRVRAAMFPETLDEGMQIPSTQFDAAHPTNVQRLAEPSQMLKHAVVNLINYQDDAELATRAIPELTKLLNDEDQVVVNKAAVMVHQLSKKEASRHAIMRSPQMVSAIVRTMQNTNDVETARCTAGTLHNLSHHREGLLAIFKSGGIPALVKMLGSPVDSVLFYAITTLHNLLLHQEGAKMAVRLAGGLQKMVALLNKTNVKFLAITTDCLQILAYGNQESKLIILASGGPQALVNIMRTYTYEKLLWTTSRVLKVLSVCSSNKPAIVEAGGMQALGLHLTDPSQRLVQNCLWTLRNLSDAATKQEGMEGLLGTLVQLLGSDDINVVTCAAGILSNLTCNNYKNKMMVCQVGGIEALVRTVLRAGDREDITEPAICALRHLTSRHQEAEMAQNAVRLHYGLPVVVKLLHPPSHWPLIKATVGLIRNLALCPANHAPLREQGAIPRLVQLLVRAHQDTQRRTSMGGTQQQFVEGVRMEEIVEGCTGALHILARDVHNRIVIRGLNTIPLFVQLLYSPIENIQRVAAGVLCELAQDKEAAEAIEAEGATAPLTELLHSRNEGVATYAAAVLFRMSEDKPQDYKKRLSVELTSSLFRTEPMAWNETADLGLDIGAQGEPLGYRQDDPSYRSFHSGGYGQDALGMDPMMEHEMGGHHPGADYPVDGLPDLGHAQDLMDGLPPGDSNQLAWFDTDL

T2: full-length beta-catenin (Axin site) (Homo sapiens, UniProt P35222)
T2 construct: 15 nM full-length beta-catenin, 20 nM FITC labeled peptide in buffer
T2 sequence (P35222 1-781): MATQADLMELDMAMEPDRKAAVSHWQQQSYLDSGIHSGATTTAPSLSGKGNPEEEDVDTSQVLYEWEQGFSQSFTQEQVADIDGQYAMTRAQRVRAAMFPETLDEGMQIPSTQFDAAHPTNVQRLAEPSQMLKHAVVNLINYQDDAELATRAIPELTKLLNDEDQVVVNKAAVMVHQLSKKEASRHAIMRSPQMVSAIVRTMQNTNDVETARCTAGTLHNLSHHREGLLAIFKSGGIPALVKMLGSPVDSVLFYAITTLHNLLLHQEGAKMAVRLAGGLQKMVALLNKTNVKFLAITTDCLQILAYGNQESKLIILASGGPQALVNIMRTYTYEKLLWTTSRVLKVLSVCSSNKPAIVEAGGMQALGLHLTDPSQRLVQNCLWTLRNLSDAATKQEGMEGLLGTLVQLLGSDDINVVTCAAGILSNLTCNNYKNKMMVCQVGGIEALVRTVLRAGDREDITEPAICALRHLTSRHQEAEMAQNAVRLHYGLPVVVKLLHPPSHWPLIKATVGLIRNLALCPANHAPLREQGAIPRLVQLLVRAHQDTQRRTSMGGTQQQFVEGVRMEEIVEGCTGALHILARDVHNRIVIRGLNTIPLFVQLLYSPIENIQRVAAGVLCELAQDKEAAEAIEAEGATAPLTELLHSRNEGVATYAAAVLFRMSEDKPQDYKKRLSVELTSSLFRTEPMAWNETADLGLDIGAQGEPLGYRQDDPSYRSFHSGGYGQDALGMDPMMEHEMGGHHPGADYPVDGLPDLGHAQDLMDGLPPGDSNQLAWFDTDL

T3: full-length beta-catenin (UniProt P35222 2-781, limits assumed)
T3 construct: mature; also called full-length ß-Catenin; β-catenin
T3 sequence (looked up): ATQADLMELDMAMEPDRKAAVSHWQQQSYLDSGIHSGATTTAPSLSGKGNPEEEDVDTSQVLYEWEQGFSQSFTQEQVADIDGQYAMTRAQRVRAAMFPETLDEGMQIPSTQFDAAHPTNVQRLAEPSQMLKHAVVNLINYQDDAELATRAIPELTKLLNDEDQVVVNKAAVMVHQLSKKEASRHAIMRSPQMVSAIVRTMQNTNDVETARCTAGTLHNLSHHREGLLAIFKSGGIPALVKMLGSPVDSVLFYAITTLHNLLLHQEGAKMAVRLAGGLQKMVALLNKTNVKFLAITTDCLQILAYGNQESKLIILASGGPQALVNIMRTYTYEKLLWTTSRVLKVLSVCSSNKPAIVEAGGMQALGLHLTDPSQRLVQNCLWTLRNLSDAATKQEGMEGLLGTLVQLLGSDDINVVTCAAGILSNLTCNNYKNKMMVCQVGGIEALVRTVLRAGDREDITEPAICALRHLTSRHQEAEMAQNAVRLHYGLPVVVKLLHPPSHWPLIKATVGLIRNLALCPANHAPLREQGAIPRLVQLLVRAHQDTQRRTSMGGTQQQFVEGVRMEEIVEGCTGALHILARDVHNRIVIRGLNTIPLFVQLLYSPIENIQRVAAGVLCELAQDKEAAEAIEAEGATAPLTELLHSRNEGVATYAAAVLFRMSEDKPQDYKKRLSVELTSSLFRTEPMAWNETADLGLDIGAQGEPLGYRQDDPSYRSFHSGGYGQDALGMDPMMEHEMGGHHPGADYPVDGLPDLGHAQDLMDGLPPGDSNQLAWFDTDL


Assays:
[1] = system: TCF/LEF Luciferase reporter HEK293 cell lines; assay: TCF/LEF reporter assay; type: cell-based; conditions: Table 2
Protocol: FIG. 2. […] FIG. 2 depicts exemplary data from TCF/LEF reporter assays. Y-axes illustrate luminescence, and X-axes illustrate concentrations of peptides. […] TCF/LEF Luciferase reporter HEK293 cell lines (BPS Bioscience) were treated with dilution series of FP0025c and FP00217c Isomer 2 for 18 hours. 300 ng/mL of Wnt3a (Peprotech) was added to the cells for the final 6 hours of incubation. Luciferase activity was measured using Bright-Glo Luciferase Assay (Promega) according to manufacturer's protocol.
In some embodiments, a provided assay is a TCF/LEF reporter assay. In some embodiments, in an exemplary such assay, TCF/LEF Luciferase reporter HEK293 cell lines (BPS Bioscience) were treated with dilution series of provided peptides for 18 hours. 300 ng/mL of Wnt3a (Peprotech) was added to the cells for the final 6 hours of incubation. Luciferase activity was measured using Bright-Glo Luciferase Assay (Promega) according to manufacturer's protocol. […] Applicant also notes that teachings of the present disclosure are not restricted to a particular mechanism of action of described agents.

[2] = target: T1, biotinylated beta-catenin; assay: Surface Plasmon Resonance (Biacore); type: binding
Protocol: Additionally or alternatively, binding to beta-catenin may be measured by Surface Plasmon Resonance. In an exemplary assay, approximately 6 nmol dried peptide diluted in buffer (50 mM Tris pH 8.0, 300 mM NaCl, 2% glycerol, 0.5 mM TCEP, 0.5 mM EDTA, 0.005% Tween-20, 1 mg/mL CM Dextran, 0.02% w/v sodium azide) was assayed on a Biacore X100 using the Biacore Biotin CAPture Kit (GE Healthcare) and biotinylated beta-catenin. Results were analyzed using the Biacore X100 Evaluation Software. […] FPO217c (Isomer 2) bound to the armadillo domain of β-catenin with a Kd of 2 nM.

[3] = Solubility in DPBS (A280 of supernatant); type: physicochemical; conditions: DPBS
Summary of the method: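 Dried peptide reconstituted in DPBS in triplicate, vortexed, sonicated and centrifuged. Supernatant A280 measured; concentration calculated using the tryptophan extinction coefficient.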

[4] = target: T2, full-length beta-catenin (Axin site); assay: Competition fluorescence polarization assay (Axin site probe); type: binding; conditions: competition fluorescence polarization, Table 2; read-out: in vitro FP EC50
Summary of the method: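 Competition FP: 15 nM full-length β-catenin pre-incubated 5 min with 20 nM FITC-labelled stapled Axin-site peptide, then titrated peptide added (3-fold series from 5 μM) for 15 min in the dark. Buffer 50 mM Tris pH 8.0, 250 mM NaCl, 2% glycerol, 0.5 mM EDTA; duplicate reads.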

full-length beta-catenin [5] = target: T3, full-length beta-catenin; assay: competition FP, grade of FP EC50 (++: 100-500 nM)
Protocol: (§1) In some embodiments, a competition fluorescence polarization assay is used to assess binding of provided compounds to beta-catenin. In an exemplary procedure, solutions of provided compounds, e.g., provided stapled peptides, were prepared in a buffer (e.g., 50 mM Tris pH 8.0, 250 mM NaCl, 2% glycerol, 0.5 mM EDTA, 0.02% w/v sodium azide) using a 3-fold serial dilution from 5 µM. Probe solution (15 nM full-length ß-Catenin, 20 nM FITC labeled peptide in buffer) was prepared and incubated for a period of time, e.g., 5 minutes, and the a volume, e.g., 40 µL per well plated in suitable plate, e.g., a black polystyrene 384-well plate (Corning). Equal volume of the serial diluted peptide was added to the plate and incubated protected from light for 15 minutes prior to read. Reads were performed on a Spectramax M5 (Molecular Devices) in duplicate. Suitable probe was FITC-PEG1-PQ-S5-ILD-S5-HVRRVWR (SEQ ID NO: 1) (hydrocarbon staple formed by two S5 via olefin metathesis) and/or FITC-bA-PQ-S5-ILD-S5-HVRRVWR (SEQ ID NO: 3) (hydrocarbon staple formed by two S5 via olefin metathesis). […] Another peptide, FPO217c (Ac-AR_8ILDAHIM$B5$RVW (SEQ ID NO: 280), with N-terminal proline removed and valine replaced with isoleucine compared to FP0025c) was prepared.

full-length beta-catenin [6] = target: T3, full-length beta-catenin; assay: competition FP; amino staple (cyclic)
Protocol: as §1

| Molecule | TCF/LEF Reporter Inhibition at 10 μM [1] | Kd ([2]; Table 2, read-out: Kd by SPR) | EC50 [4] | other results |
| --- | --- | --- | --- | --- |
| CCCC[C@H](NC(=O)[C@@H](NC(=O)[C@H](CCCNC(=N)N)NC(=O)[C@H](CCC(N)=O)NC(=O)[C@@H](NC(=O)[C@H](Cc1c[nH]cn1)NC(=O)[C@H](CCC(=O)O)NC(=O)[C@H](CC(=O)O)NC(=O)[C@H](CC(C)C)NC(=O)[C@@H](NC(=O)[C@H](CO)NC(=O)[C@H](CCC(=O)O)NC(=O)[C@@H]1CCCN1C(C)=O)[C@@H](C)CC)C(C)C)C(C)C)C(=O)N[C@@H](CCCCN)C(N)=O [FP0110, Ac-P-E-S-I-L-D-E-H-V-Q-R-V-nL-K-NH2] (Ac-PESILDEHVQRV[Nle]K-NH2) | 19% |  |  |  |
| CC[C@H](C)[C@@H]1NC(=O)[C@H](Cc2c[nH]cn2)NC(=O)[C@H](C)NC(=O)[C@H](CC(=O)O)NC(=O)[C@H](CC(C)C)NC(=O)[C@H]([C@@H](C)CC)NC(=O)[C@](C)(NC(=O)[C@H](C)NC(C)=O)CCC=CCOC(=O)N(C)CCC[C@@](C)(C(=O)N[C@@H](CCCNC(=N)N)C(=O)N[C@H](C(=O)N[C@@H](Cc2c[nH]c3ccccc23)C(N)=O)C(C)C)NC1=O [FP0509c, Ac-A-R4-I-L-D-A-H-I-MH-R-V-W-NH2] |  | 3 nM | < 100 nM | Kd ([2]; Table 3 Part A, read-out: Binding Kd): 3 nM; solubility ([3]; Table 2, read-out: Solubility): 32 µM (≈ 49.9 µg/mL); solubility ([3]; Table 3 Part A, read-out: Solubility in DPBS): 42 µM (≈ 65.4 µg/mL) |
| Hex-P-A-R8-I-L-D-A-H-V-MB-R-V-W-NH2 (Hex-PA[R8]ILDAHV[MB(12)]RVW-NH2; staple 3-10) [FP0325c] | 73% |  |  |  |
| 0ct-P-A-R8-I-L-D-A-H-V-MB-R-V-W-1NH2 (Octyl-PA[R8]ILDAHV[MB(12)]RVW-NH2; staple 3-10) [FP0324c] | 51% |  |  |  |
| CC[C@H](C)[C@@H]1NC(=O)[C@@]2(NC(=O)[C@H](CCC(N)=O)NC(=O)[C@@H]3CCCN3C(C)=O)CCN(CC=CCCCC[C@](C)(C(=O)N[C@@H](Cc3c[nH]cn3)C(=O)N[C@H](C(=O)N[C@@H](CCCNC(=N)N)C(=O)N[C@@H](CCCNC(=N)N)C(=O)N[C@H](C(=O)N[C@@H](Cc3c[nH]c4ccccc34)C(=O)N[C@@H](CCCNC(=N)N)C(N)=O)C(C)C)C(C)C)NC(=O)[C@H](CC(=O)O)NC(=O)[C@H](CC(C)C)NC1=O)C2 (single isomer, unassigned) [FP0745a, Ac-P-Q-MC-I-L-D-R6-H-V-R-R-V-W-R-NH2] |  | 34 nM | 100 to 500 nM |  |
| Ac-PQ[S7]ILD[MA]HVRRVWR-NH2 (staple 3-7; also: amino staple: CO2 extruded from carbamate staple with Pd(PPh3)4, also called FP-0738 (amino staple); S7/Az) [FP0738a] |  |  |  | FP EC50 (full-length beta-catenin [5]): 100 to 500 nM; EC50 (full-length beta-catenin [6]): 200 nM |
